Legend:
[1] = stability test, storage at +25° C. in a thermostatic stove; format: physicochemical
Method: Some samples of the products obtained as described in the previous examples are subjected to stability tests, storing them at +25° C., in a thermostatic stove.
The SAMe ion content analysis (FIG. 3) and the diastereomeric purity relative to the (SS) isomer (FIG. 4) are periodically repeated, and the result is compared with the starting value for the same sample, obtaining the results reported.
The data obtained with the product obtained according to EP 1896489 and two commercial samples of SAMe, 1,4-butanedisulphate salt (SD4 Test 1) and Pates salt (batch S1S1057B), are compared.

[2] = accelerated stability test, thermostatic stove at +55° C., 5 days; format: physicochemical
Method: The product obtained as described in Example 6 (comprising SAMe and phytic acid) and a sample of SAMe inositol hexaphosphate obtained as described in Example 5 are subjected to an accelerated stability test, incubated in a thermostatic stove at +55° C., and the analyses are repeated after 5 days.
The samples are analysed for the following values: • SAMe ion content (total of all enantiomers) determined by HPLC and expressed as % by weight • enantiomeric purity, determined by HPLC and expressed as % of (SS) isomer • active ingredient content, calculated by multiplying the previous two values and expressed as % by weight of (SS)SAMe • overall purity, determined by HPLC as SAMe area/total area of chromatogram, expressed as area %. The figure comprises the values of all known degradation impurities.

[3] = Pharmacokinetic profile in the rat (SAMe plasma levels after oral administration by cannula); format: in vivo, Sprague Dawley rats; settings: by cannula in water, 134 mg/kg and 95 mg/kg, equal SAMe ion dose, 0-24 h (FIG. 1, FIG. 2)
Method: 70 Sprague Dawley rats (35 male and 35 female), aged 7-9 weeks and weighing 176-200 g, were acclimatized in a cage for two weeks before the start of the treatment, maintained at +22° C. and 55% relative humidity. The rats were fed on 4RF 21 (Mucedola) feed, and weighed before the beginning and at the end of the test. At the time of treatment, 32 animals per group (16 males and 16 females) were selected from those with the most similar weights, and assigned to the two treatments.
The product was administered by cannula, dissolved in water, at two dose levels, namely 134 mg/kg and 95 mg/kg. The rats were fasted overnight before administration and for a further two hours after administration. The two equimolar doses guaranteed an equal intake of SAMe ion.
The blood levels of SAMe were assayed by taking a sample from the tail vein at fixed intervals, at times 0 (pre-administration), 0.5, 1, 1.5, 2, 4, 8 and 24 hours after administration. The blood samples were centrifuged after addition of EDTA to separate the plasma from the cell fraction. The plasma was then analysed by HPLC according to the method reported in Wise, Fullerton J. Liq. Chromatogr. […]
The SAMe plasma concentration values are also used to determine, according to the Area Under Curve (AUC) calculation, the total quantity of active ingredient absorbed, obtaining the values set out in FIG. 2.

| Compound | stability of (SS)SAMe isomer content / diastereomeric purity versus starting value (FIG. 4) [1] | Purity (% area), final value ([2]; HPLC SAMe area/total area, after 5 days at +55° C.) [%] | Purity (% area), starting value ([2]; HPLC SAMe area/total area, starting value) [%] | degradation by isomerization of (SS)SAMe after the stress test ([2]; after 5 days at +55° C.) | (SS)SAMe content (active ingredient, SAMe content x enantiomeric purity), final value ([2]; after 5 days at +55° C., % by weight) [%] | (SS)SAMe content (active ingredient, SAMe content x enantiomeric purity), starting value ([2]; starting value, % by weight) [%] | absorption (AUC) and plasma concentration of SAMe versus SAMe Pates [3] |
| --- | --- | --- | --- | --- | --- | --- | --- |
| C[S@@+](CC[C@H](N)C(=O)[O-])C[C@H]1O[C@@H](n2cnc3c(N)ncnc32)[C@H](O)[C@@H]1O.O=P(O)(O)O[C@H]1[C@H](OP(=O)(O)O)[C@@H](OP(=O)(O)O)[C@H](OP(=O)(O)O)[C@@H](OP(=O)(O)O)[C@H]1OP(=O)(O)O [AT1003, SAMe inositol hexaphosphate] | stable for longer | 90.0 | 95.98 | maintains an excess of the (SS)SAMe form | 21.28 | 26.59 | – |
| C[S+](CC[C@H](N)C(=O)[O-])C[C@H]1O[C@@H](n2cnc3c(N)ncnc32)[C@H](O)[C@@H]1O.O=S(=O)(O)CCCCS(=O)(=O)O (some centres unmarked) [SD4 Test 1, reference compound] | stable for longer | – | – | – | – | – | – |
| SAMe inositol hexaphosphate [SAMe IP6] | – | – | – | – | – | – | better absorption and a higher plasma concentration of active ingredient |
